# Target: SIRT6 enzyme (Homo sapiens, UniProt Q8N6T7)
# Experiment: Measurement of deacetylation activity (SIRT6, AlphaLISA, H3K9(Ac) peptide)
# Format: biochemical
# Conditions: SIRT6 25 ng/mL, H3K9(Ac) biotin peptide 2 nM, NAD 10 μM, room temperature 30 minutes, duplicate
# How it was run: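 Activation read as EC150, the concentration giving 150% activity relative to enzyme/no-enzyme DMSO controls, via variable-slope fit. Deacetylation of 2 nM biotinylated H3K9(Ac) peptide with 10 μM NAD+ by 25 ng/mL SIRT6 ran 30 min at room temperature, pH 8.0, then AlphaLISA detection of unmodified H3K9.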
# Sequence of SIRT6 enzyme (Q8N6T7 whole entry, species assumed): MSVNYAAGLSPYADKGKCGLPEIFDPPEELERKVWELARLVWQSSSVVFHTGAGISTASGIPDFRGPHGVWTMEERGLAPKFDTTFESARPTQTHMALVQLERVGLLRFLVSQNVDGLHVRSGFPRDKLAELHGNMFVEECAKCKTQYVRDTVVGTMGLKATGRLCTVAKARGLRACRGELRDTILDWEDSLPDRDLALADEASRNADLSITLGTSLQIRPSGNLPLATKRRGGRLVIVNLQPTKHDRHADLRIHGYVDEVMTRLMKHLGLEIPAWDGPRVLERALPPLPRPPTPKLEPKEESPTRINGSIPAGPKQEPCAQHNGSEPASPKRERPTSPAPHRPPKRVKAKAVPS
row,Structure (SMILES),EC150 (the concentration of the compound showing a relative enzyme activity of 150%) [μm]
1,"CNC(=O)Nc1nc2c(s1)C1CN(C(C)=O)CC(C2)N1c1nc(-c2ccc(F)cc2)no1 (stereo not shown) [Example 19, N-{6-acetyl-10-[3-(4-fluorophenyl)-1,2,4-oxadiazol-5-yl]-4,5,6,7,8,9-hexahydro-4,8-epimino[1,3]thiazolo[5,4-d]azocin-2-yl}-N′-methylurea]",0.60
2,"CC(OCC(F)(F)F)c1noc(N2CCc3nc(NC(=O)N[C@H](C)CO)sc3C2)n1 (stereo partly drawn) [Example 89, N-[(2R)-1-hydroxypropan-2-yl]-N′-(5-{3-[1-(2,2,2-trifluoroethoxy)ethyl]-1,2,4-oxadiazol-5-yl}-4,5,6,7-tetrahydro[1,3]thiazolo[5,4-c]pyridin-2-yl)urea]",2.9
3,"COc1cccc(-c2cnc(N3[C@@H]4COC[C@H]3c3sc(NC(=O)N[C@H](C)CO)nc3C4)o2)n1 [Example 67, N-[(2R)-1-hydroxypropan-2-yl]-N′-{(4S,8S)-10-[5-(6-methoxypyridin-2-yl)-1,3-oxazol-2-yl]-4,7,8,9-tetrahydro-5H-4,8-epiminooxocino[5,4-d][1,3]thiazol-2-yl}urea]",0.75
4,"CNC(=O)Nc1nc2c(s1)C1CN(C(=O)OC)CC(C2)N1c1nc(-c2ccc(F)cn2)no1 (stereo not shown) [Example 142, Methyl 10-[3-(5-fluoropyridin-2-yl)-1,2,4-oxadiazol-5-yl]-2-[(methylcarbamoyl)amino]-4,7,8,9-tetrahydro-4,8-epimino[1,3]thiazolo[5,4-d]azocine-6(5H)-carboxylate]",3.3
5,"CNC(=O)Nc1nc2c(s1)[C@@H]1COC[C@H](C2)N1c1nc(C2CCC(F)(F)CC2)no1 [Example 7, N-{(4S,8S)-10-[3-(4,4-difluorocyclohexyl)-1,2,4-oxadiazol-5-yl]-4,7,8,9-tetrahydro-5H-4,8-epiminooxocino[5,4-d][1,3]thiazol-2-yl}-N′-methylurea]",5.7
6,"[2H]C([2H])([2H])Oc1ccc2oc(N3[C@@H]4COC[C@H]3c3sc(NC(=O)NCC(C)(C)O)nc3C4)nc2c1 [Example 60, N-(2-hydroxy-2-methylpropyl)-N′-[(4S,8S)-10-{5-[(^2H3)methyloxy]-1,3-benzoxazol-2-yl}-4,7,8,9-tetrahydro-5H-4,8-epiminooxocino[5,4-d][1,3]thiazol-2-yl]urea]",1.7
7,"CNC(=O)Nc1nc2c(s1)[C@@H]1CC[C@H](C2)N1c1nc(-c2ccc(F)cc2)no1 (relative stereo) [Example 10, N-{(5R*,8S*)-9-[3-(4-fluorophenyl)-1,2,4-oxadiazol-5-yl]-5,6,7,8-tetrahydro-4H-5,8-epiminocyclohepta[d][1,3]thiazol-2-yl}-N′-methylurea]",1.0
8,O=C(Nc1nc2c(s1)[C@@H]1COC[C@H](C2)N1c1cc(-c2ccc(F)cc2)on1)N[C@@H]1CCOC1 [Example 155],0.51
9,"CC(C)(O)CNC(=O)Nc1nc2c(s1)CN(c1nc(C3(C(F)(F)F)CC3)no1)CC2 [Example 92, N-(2-hydroxy-2-methylpropyl)-N′-(5-{3-[1-(trifluoromethyl)cyclopropyl]-1,2,4-oxadiazol-5-yl}-4,5,6,7-tetrahydro[1,3]thiazolo[5,4-c]pyridin-2-yl)urea]",3.5
10,"COc1cccc(-c2cnc(N3[C@@H]4COC[C@H]3c3sc(NC(=O)N[C@H]5C[C@H](O)C5)nc3C4)o2)n1 [Example 78, N-[(1r,3S)-3-hydroxycyclobutyl]-N′-{(4S,8S)-10-[5-(6-methoxypyridin-2-yl)-1,3-oxazol-2-yl]-4,7,8,9-tetrahydro-5H-4,8-epiminooxocino[5,4-d][1,3]thiazol-2-yl}urea]",0.41
11,"CC(C)(O)CNC(=O)Nc1nc2c(s1)[C@@H]1COC[C@H](C2)N1c1nc2cc(OCF)ccc2o1 [Example 57, N-{(4S,8S)-10-[5-(fluoromethoxy)-1,3-benzoxazol-2-yl]-4,7,8,9-tetrahydro-5H-4,8-epiminooxocino[5,4-d][1,3]thiazol-2-yl}-N′-(2-hydroxy-2-methylpropyl)urea]",0.93
12,"C[C@@H](CO)NC(=O)Nc1nc2c(s1)[C@@H]1COC[C@H](C2)N1c1ncc(-c2cccc(C(F)F)c2)o1 [Example 168, N-[(4S,8S)-10-{5-[3-(difluoromethyl)phenyl]-1,3-oxazol-2-yl}-4,7,8,9-tetrahydro-5H-4,8-epiminooxocino[5,4-d][1,3]thiazol-2-yl]-N′-[(2S)-1-hydroxypropan-2-yl]urea]",0.35
13,"COCCNC(=O)Nc1nc2c(s1)CN(c1nc(C3CC(F)(F)CCO3)no1)CC2 (stereo not shown) [Example 98, N-{5-[3-(4,4-difluorooxan-2-yl)-1,2,4-oxadiazol-5-yl]-4,5,6,7-tetrahydro[1,3]thiazolo[5,4-c]pyridin-2-yl}-N′-(2-methoxyethyl)urea]",2.6
14,"O=C(Nc1nc2c(s1)[C@@H]1COC[C@H](C2)N1c1nc2cc(Cl)ccc2o1)N[C@H]1CC[C@H](O)CC1 [Example 149, N-[(4S,8S)-10-(5-chloro-1,3-benzoxazol-2-yl)-4,7,8,9-tetrahydro-5H-4,8-epiminooxocino[5,4-d] [1,3]thiazol-2-yl]-N′-[(1r,4r)-4-hydroxycyclohexyl]urea]",0.45
15,"C[C@H](CO)NC(=O)Nc1nc2c(s1)[C@@H]1COC[C@H](C2)N1c1nc2cc(F)cc(F)c2o1 [Example 147, N-[(4S,8S)-10-(5,7-difluoro-1,3-benzoxazol-2-yl)-4,7,8,9-tetrahydro-5H-4,8-epiminooxocino[5,4-d][1,3]thiazol-2-yl]-N′-[(2R)-1-hydroxypropan-2-yl]urea]",3.3
16,"O=C(Nc1nc2c(s1)C1COCC(C2)N1c1nnc(-c2cccc(OC(F)F)c2)o1)N[C@H]1CCOC1 (stereo partly drawn) [Example 115, N-(10-{5-[3-(difluoromethoxy)phenyl]-1,3,4-oxadiazol-2-yl}-4,7,8,9-tetrahydro-5H-4,8-epiminooxocino[5,4-d][1,3]thiazol-2-yl)-N′-[(3S)-oxolan-3-yl]urea]",2
17,"CC(C)(O)CNC(=O)Nc1nc2c(s1)[C@@H]1COC[C@H](C2)N1c1nc2cc(C(F)F)ccc2o1 [Example 53, N-{(4S,8S)-10-[5-(difluoromethyl)-1,3-benzoxazol-2-yl]-4,7,8,9-tetrahydro-5H-4,8-epiminooxocino[5,4-d][1,3]thiazol-2-yl}-N′-(2-hydroxy-2-methylpropyl)urea]",0.29
18,"O=C(NCCOCCO)Nc1nc2c(s1)CN(c1nc(C3CCC(F)(F)CC3)no1)CC2 [Example 34, N-{5-[3-(4,4-difluorocyclohexyl)-1,2,4-oxadiazol-5-yl]-4,5,6,7-tetrahydro[1,3]thiazolo[5,4-c]pyridin-2-yl}-N′-[2-(2-hydroxyethoxy)ethyl]urea]",1.9
19,"CNC(=O)Nc1nc2c(s1)CN(c1nnc(C(F)(F)F)o1)CC2 [Example 2, N-methyl-N′-{5-[5-(trifluoromethyl)-1,3,4-oxadiazol-2-yl]-4,5,6,7-tetrahydro[1,3]thiazolo[5,4-c]pyridin-2-yl}urea]",1.6
20,"CNC(=O)Nc1nc2c(s1)[C@H]1CN(C(C)=O)C[C@@H](C2)N1c1nc(-c2ccc(F)cc2)no1 (relative stereo) [Example 23, (−)-N-{(4R*,8R*)-6-acetyl-10-[3-(4-fluorophenyl)-1,2,4-oxadiazol-5-yl]-4,5,6,7,8,9-hexahydro-4,8-epimino[1,3]thiazolo[5,4-d]azocin-2-yl}-N′-methylurea]",0.19
21,"CCOc1cccc(-c2cnc(N3[C@@H]4COC[C@H]3c3sc(NC(=O)NCC(C)(C)O)nc3C4)o2)n1 [Example 79, N-{(4S,8S)-10-[5-(6-ethoxypyridin-2-yl)-1,3-oxazol-2-yl]-4,7,8,9-tetrahydro-5H-4,8-epiminooxocino[5,4-d][1,3]thiazol-2-yl}-N′-(2-hydroxy-2-methylpropyl)urea]",1.2
22,"O=C(Nc1nc2c(s1)[C@@H]1COC[C@H](C2)N1c1cc(-c2ccc(F)cc2)on1)N[C@H]1CC[C@H](O)CC1 [Example 159, N-{(4S,8S)-10-[5-(4-fluorophenyl)-1,2-oxazol-3-yl]-4,7,8,9-tetrahydro-5H-4,8-epiminooxocino[5,4-d][1,3]thiazol-2-yl}-N′-[(1r,4r)-4-hydroxycyclohexyl]urea]",1.3
23,"O=C(Nc1nc2c(s1)CN(c1nc(C3CCC(F)(F)C3)no1)CC2)N[C@H]1C[C@H](O)C1 (stereo partly shown) [Example 35, N-{5-[3-(3,3-difluorocyclopentyl)-1,2,4-oxadiazol-5-yl]-4,5,6,7-tetrahydro[1,3]thiazolo[5,4-c]pyridin-2-yl}-N′-[(1r,3r)-3-hydroxycyclobutyl]urea]",1
24,"CC(C)(O)CNC(=O)Nc1nc2c(s1)[C@@H]1COC[C@H](C2)N1c1nc2cc(C#N)c(F)cc2o1 [Example 55, N-[(4S,8S)-10-(5-cyano-6-fluoro-1,3-benzoxazol-2-yl)-4,7,8,9-tetrahydro-5H-4,8-epiminooxocino[5,4-d][1,3]thiazol-2-yl]-N′-(2-hydroxy-2-methylpropyl)urea]",2.3
25,"CC(C)(O)CNC(=O)Nc1nc2c(s1)CN(c1nc(C3CCC(F)(F)CC3)no1)CC2 [Example 88, N-{5-[3-(4,4-difluorocyclohexyl)-1,2,4-oxadiazol-5-yl]-4,5,6,7-tetrahydro[1,3]thiazolo[5,4-c]pyridin-2-yl}-N′-(2-hydroxy-2-methylpropyl)urea]",1.1

# Source: patent publication US11981686B2, “Urea compound having substituent” (DAIICHI SANKYO COMPANY, LIMITED, priority 2019, dated 2024)
